This passage reports EC50 results from patent US9636338B2, “Phenyl-dihydropyridine derivatives as inhibitors of aldosterone synthase” (Hoffmann-La Roche Inc., priority 2013, dated 2017).

In one assay the target is human CYP11B1 (Homo sapiens (Human), UniProt P15538). As to the kind of experiment: G-402 cellular enzyme assay, human CYP11B1 (cortisol release, HTRF). Type of assay: cell-based. The following applies: G-402 cells expressing human CYP11B1; 1 μM Deoxycortisol. The source says:
(§1) Herein we identified the use of the G-402 cell line as a host cell to ectopically express (transiently or stably) enzymes of the CYP11 family. Specifically we developed stable G-402 cells expressing ectopically human CYP11B1, human CYP11B2, human CYP11A1, cynmolgus CYP11B1 or cynomolgus CYP11B2 enzyme activity. Importantly the identified cell line G-402 expresses co-factors (adrenodoxin and adrenodoxin reductase) important for the activity of the CYP11 family and no relevant enzyme activity of the CYP11 family (in comparison to H295R cells) was detected in these cells. Therefore the G-402 cell line is uniquely suited as a host cell for the ectopic expression of enzymes from the CYP11 family. G-402 cells can be obtained from ATCC (CRL-1440) and were originally derived from a renal leiomyoblastoma.
(§2) The expression plasmids contains the ORF for either human/cyno CYP11B1 or CYP11B2 under the control of a suitable promoter (CMV-promoter) and a suitable resistance marker (neomycin). Using standard techniques the expression plasmid is transfected into G-402 cells and these cells are then selected for expressing the given resistance markers. Individual cell-clones are then selected and assessed for displaying the desired enzymatic activity using 11-Deoxycorticosterone (Cyp11B2) or 11-Deoxycortisol (Cyp11B1) as a substrate.
(§3) G-402 cells expressing CYP11 constructs were established as described above and maintained in McCoy's 5a Medium Modified, ATCC Catalog No. 30-2007 containing 10% FCS and 400 μg/ml G418 (Geneticin) at 37° C. under an atmosphere of 5% CO2/95% air. Cellular enzyme assays were performed in DMEM/F12 medium containing 2.5% charcoal treated FCS and appropriate concentration of substrate (0.3-10 uM 11-Deoxycorticosterone, 11-Deoxycortisol or Corticosterone). For assaying enzymatic activity, cells were plated onto 96 well plates and incubated for 16 h. An aliquot of the supernatant is then transferred and analyzed for the concentration of the expected product (Aldosterone for CYP11B2; Cortisol for CYP11B1). The concentrations of these steroids can be determined using HTRF assays from CisBio analyzing either Aldosterone or Cortisol.
(§4) Inhibition of the release of produced steroids can be used as a measure of the respective enzyme inhibition by test compounds added during the cellular enzyme assay. The dose dependent inhibition of enzymatic activity by a compound is calculated by means of plotting added inhibitor concentrations (x-axes) vs. measured steroid/product level (y-axes). The inhibition is then calculated by fitting the following 4-parameter sigmoidal function (Morgan-Mercer-Flodin (MMF) model) to the raw data points using the least squares method:
(§5) [formula] wherein, A is the maximum y value, B is the EC50 factor determined using XLFit, C is the minimum y value and D is the slope value.
(§6) EC50 values for compounds claimed herein were tested with the G402-based assay system described. Cyp11B2 enzyme activity was tested in presence of 1 μM Deoxycorticosterone and variable amounts of inhibitors; Cyp11B1 enzyme activity was tested in presence of 1 μM Deoxycortisol and variable amounts of inhibitors.

The target in a further assay is CYP11B2 (Homo sapiens (Human), UniProt P19099). As to the kind of experiment: G-402 cellular enzyme assay, human CYP11B2 (aldosterone release, HTRF). Type of assay: cell-based. The settings on record: G-402 cells expressing human CYP11B2; 1 μM Deoxycorticosterone.
Description: as §1, §2, §3, §4, §5, §6
(In general: Time-resolved FRET reads energy transfer from a long-lived donor to a nearby acceptor.)

SMILES strings stand for the structures.

Sequence of CYP11B2 (P19099 25-503): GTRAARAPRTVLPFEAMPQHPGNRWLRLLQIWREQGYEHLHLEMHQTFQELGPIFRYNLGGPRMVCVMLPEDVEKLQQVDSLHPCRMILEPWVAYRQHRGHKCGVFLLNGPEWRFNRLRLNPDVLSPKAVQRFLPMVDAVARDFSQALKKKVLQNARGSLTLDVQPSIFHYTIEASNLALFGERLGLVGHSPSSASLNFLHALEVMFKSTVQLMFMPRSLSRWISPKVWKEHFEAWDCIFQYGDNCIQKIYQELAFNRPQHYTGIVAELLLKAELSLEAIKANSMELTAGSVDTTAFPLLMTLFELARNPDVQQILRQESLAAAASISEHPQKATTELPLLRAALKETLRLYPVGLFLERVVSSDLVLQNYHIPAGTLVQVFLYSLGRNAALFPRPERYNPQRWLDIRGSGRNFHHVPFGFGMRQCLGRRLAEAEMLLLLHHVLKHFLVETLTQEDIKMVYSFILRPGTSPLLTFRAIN
Sequence of human CYP11B1 (P15538 25-503): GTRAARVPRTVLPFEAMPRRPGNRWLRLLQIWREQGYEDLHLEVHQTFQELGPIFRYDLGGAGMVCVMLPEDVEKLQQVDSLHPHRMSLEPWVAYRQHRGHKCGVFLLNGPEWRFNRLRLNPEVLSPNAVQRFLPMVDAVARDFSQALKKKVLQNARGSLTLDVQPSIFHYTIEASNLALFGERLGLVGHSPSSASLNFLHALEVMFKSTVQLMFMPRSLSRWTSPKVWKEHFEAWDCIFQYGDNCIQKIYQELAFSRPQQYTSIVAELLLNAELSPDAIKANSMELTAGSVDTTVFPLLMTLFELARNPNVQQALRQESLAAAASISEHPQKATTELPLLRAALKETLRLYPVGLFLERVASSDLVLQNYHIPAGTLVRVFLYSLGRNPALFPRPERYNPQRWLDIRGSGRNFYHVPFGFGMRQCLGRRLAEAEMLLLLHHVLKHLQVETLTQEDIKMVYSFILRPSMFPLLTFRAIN

In the case of `CC1(O)CCc2cncc(-c3ccc(C(F)(F)F)c(F)c3)c21` (racemic) [Example 3, (rac)-4-(3-Fluoro-4-(trifluoromethyl)phenyl)-5-methyl-6,7-dihydro-5H-cyclopenta[c]pyridin-5-ol], the EC50 – broadly, the concentration at which the effect is half-maximal – at human CYP11B1 amounted to 2340 nM; on CYP11B2, 45 nM.

With `CC(C)N(C)C(=O)CC1CCc2cncc(-c3ccc(C(F)(F)F)cc3F)c21` (racemic) [Example 21, (rac)-2-[4-[2-Fluoro-4-(trifluoromethyl)phenyl]-6,7-dihydro-5H-cyclopenta[c]pyridin-5-yl]-N-isopropyl-N-methyl-acetamide], the values for the EC50 at human CYP11B1 and on CYP11B2 were 8360 nM and 413 nM, respectively.

As for `OC1(c2ccccc2)CCc2cncc(-c3ccc(C(F)(F)F)c(F)c3)c21` (racemic) [Example 4, (rac)-4-(3-Fluoro-4-(trifluoromethyl)phenyl)-5-phenyl-6,7-dihydro-5H-cyclopenta[c]pyridin-5-ol], the EC50 was found to be 1960 nM at human CYP11B1 and 50 nM at CYP11B2.

As for `O=C(CC1CCc2cncc(-c3ccc(C(F)(F)F)c(F)c3)c21)Nc1cc[nH]n1` (racemic) [Example 18, (rac)-2-[4-[3-Fluoro-4-(trifluoromethyl)phenyl]-6,7-dihydro-5H-cyclopenta[c]pyridin-5-yl-]-N-(1H-pyrazol-3-yl)acetamide], the EC50 on human CYP11B1 was determined as 282 nM; at CYP11B2, 597 nM.

Turning to `CCOC(=O)CC1CCc2cncc(-c3ccc(C(F)(F)F)c(F)c3)c21` (racemic) [Example 11, (rac)-Ethyl 2-[4-[3-fluoro-4-(trifluoromethyl)phenyl]-6,7-dihydro-5H-cyclopenta[c]pyridin-5-yl]acetate], the values for the EC50 at human CYP11B1 and at CYP11B2 were 367 nM and 64 nM, respectively.

For the compound `CC(C)C1(O)CCc2cncc(-c3ccc(C(F)(F)F)cc3F)c21` (racemic) [Example 7, (rac)-4-[2-Fluoro-4-(trifluoromethyl)phenyl]-5-isopropyl-6,7-dihydrocyclopenta[c]pyridin-5-ol], the EC50 came to 14400 nM at human CYP11B1 and 740 nM at CYP11B2.

As to `O=C(CC1CCc2cncc(-c3ccc(C(F)(F)F)c(F)c3)c21)N1CCCCC1` (racemic) [Example 15, (rac)-2-[4-[3-Fluoro-4-(trifluoromethyl)phenyl]-6,7-dihydro-5H-cyclopenta[c]pyridin-5-yl]-1-(1-piperidyl)ethanone], the EC50 on human CYP11B1 is greater than 30000 nM; at CYP11B2 it was 832 nM.

With `O=C(CC1CCc2cncc(-c3ccc(C(F)(F)F)c(F)c3)c21)NCC1CC1` (racemic) [Example 13, (rac)-N-(Cyclopropylmethyl)-2-[4-[3-fluoro-4-(trifluoromethyl)phenyl]-6,7-dihydro-5H-cyclopenta[c]pyridin-5-yl]acetamide], the figures for the EC50 on human CYP11B1 and on CYP11B2 were 1150 nM and 60 nM, respectively.

For `CNC(=O)CC1CCc2cncc(-c3ccc(C(F)(F)F)c(F)c3)c21` (racemic) [Example 12, (rac)-2-[4-[3-Fluoro-4-(trifluoromethyl)phenyl]-6,7-dihydro-5H-cyclopenta[c]pyridin-5-yl]-N-methyl-acetamide], the values for the EC50 at human CYP11B1 and on CYP11B2 were 1030 nM and 113 nM, respectively.

With `OC1CCc2cncc(-c3ccc(C(F)(F)F)cc3F)c21` (racemic) [Example 5, (rac)-4-[2-Fluoro-4-(trifluoromethyl)phenyl]-6,7-dihydro-5H-cyclopenta[c]pyridin-5-ol], the values for the EC50 at human CYP11B1 and at CYP11B2 were 3330 nM and 133 nM, respectively.

For the compound `OC1(c2ccccc2)CCc2cncc(-c3ccc(C(F)(F)F)cc3F)c21` (racemic) [Example 8, (rac)-4-[2-Fluoro-4-(trifluoromethyl)phenyl]-5-phenyl-6,7-dihydrocyclopenta[c]pyridin-5-ol], the EC50 on human CYP11B1 amounted to 7380 nM; at CYP11B2, 33 nM.

For the compound `O=C(CC1CCc2cncc(-c3ccc(C(F)(F)F)c(F)c3)c21)N1CCOCC1` (racemic) [Example 16, (rac)-2-[4-[3-Fluoro-4-(trifluoromethyl)phenyl]-6,7-dihydro-5H-cyclopenta[c]pyridin-5-yl]-1-morpholino-ethanone], the EC50 on human CYP11B1 turned out to be 3630 nM; on CYP11B2 it was 1020 nM.

In the case of `OC1(c2ccccc2)CCc2cncc(-c3ccc(C(F)(F)F)cc3F)c21` (single isomer, unassigned; (-)) [Example 10, (−)-4-[2-Fluoro-4-(trifluoromethyl)phenyl]-5-phenyl-6,7-dihydrocyclopenta[c]pyridin-5-ol], the figures for the EC50 at human CYP11B1 and on CYP11B2 were 8130 nM and 63 nM, respectively.

Take `OC1CCc2cncc(-c3ccc(C(F)(F)F)c(F)c3)c21` (racemic) [Example 2, (rac)-4-(3-Fluoro-4-(trifluoromethyl)phenyl)-6,7-dihydro-5H-cyclopenta[c]pyridin-5-ol]: the EC50 at human CYP11B1 is 2340 nM; at CYP11B2, 69 nM.

Regarding `OC1(c2ccccc2)CCc2cncc(-c3ccc(C(F)(F)F)cc3F)c21` (single isomer, unassigned; (+)) [Example 9, (+)-4-[2-Fluoro-4-(trifluoromethyl)phenyl]-5-phenyl-6,7-dihydrocyclopenta[c]pyridin-5-ol], the EC50 at human CYP11B1 was 35000 nM; on CYP11B2 it was 742 nM.

Regarding `CCN(C(=O)CC1CCc2cncc(-c3ccc(C(F)(F)F)cc3F)c21)C1CC1` (racemic) [Example 23, (rac)-N-Cyclopropyl-N-ethyl-2-[4-[2-fluoro-4-(trifluoromethyl)phenyl]-6,7-dihydro-5H-cyclopenta[c]pyridin-5-yl]acetamide], the EC50 at human CYP11B1 is 8610 nM; on CYP11B2, 487 nM.

In the case of `C[C@H]1CCCN1C(=O)CC1CCc2cncc(-c3ccc(C(F)(F)F)cc3F)c21` (mixture of isomers) [Example 24, (rac)-2-[4-[2-Fluoro-4-(trifluoromethyl)phenyl]-6,7-dihydro-5H-cyclopenta[c]pyridin-5-yl]-1-[(2S)-2-methylpyrrolidin-1-yl]ethanone], the results for the EC50 at human CYP11B1 and on CYP11B2 were 3970 nM and 205 nM, respectively.

On to `CCCNC(=O)CC1CCc2cncc(-c3ccc(C(F)(F)F)c(F)c3)c21` (racemic) [Example 14, (rac)-2-[4-[3-Fluoro-4-(trifluoromethyl)phenyl]-6,7-dihydro-5H-cyclopenta[c]pyridin-5-yl]-N-propyl-acetamide], for which the EC50 came to 2600 nM on human CYP11B1 and 1530 nM on CYP11B2.

Regarding `O=C(CC1CCc2cncc(-c3ccc(C(F)(F)F)c(F)c3)c21)Nc1ccon1` (racemic) [Example 17, (rac)-2-[4-[3-Fluoro-4-(trifluoromethyl)phenyl]-6,7-dihydro-5H-cyclopenta[c]pyridin-5-yl]-N-isoxazol-3-yl-acetamide], the EC50 on human CYP11B1 was determined as 311 nM; on CYP11B2, 100 nM.

With `NC1CCc2cncc(-c3ccc(C(F)(F)F)c(F)c3)c21` (racemic) [Example 1, (rac)-4-(3-Fluoro-4-(trifluoromethyl)phenyl)-6,7-dihydro-5H-cyclopenta[c]pyridin-5-amine], the EC50 at human CYP11B1 stood at 5350 nM; at CYP11B2, 263 nM.

Consider `CN(C(=O)CC1CCc2cncc(-c3ccc(C(F)(F)F)cc3F)c21)C1CC1` (racemic) [Example 22, (rac)-N-Cyclopropyl-2-[4-[2-fluoro-4-(trifluoromethyl)phenyl]-6,7-dihydro-5H-cyclopenta[c]pyridin-5-yl-]-N-methyl-acetamide], for which the EC50 stood at 9440 nM on human CYP11B1 and 957 nM on CYP11B2.

For `CCN(C)C(=O)CC1CCc2cncc(-c3ccc(C(F)(F)F)cc3F)c21` (racemic) [Example 20, (rac)-N-Ethyl-2-[4-[2-fluoro-4-(trifluoromethyl)phenyl]-6,7-dihydro-5H-cyclopenta[c]pyridin-5-yl-]-N-methyl-acetamide], the EC50 turned out to be 6000 nM on human CYP11B1 and 213 nM on CYP11B2.

As to `CC1(O)CCc2cncc(-c3ccc(C(F)(F)F)cc3F)c21` (racemic) [Example 6, (rac)-4-[2-Fluoro-4-(trifluoromethyl)phenyl]-5-methyl-6,7-dihydrocyclopenta[c]pyridin-5-ol], the EC50 on human CYP11B1 was greater than 30000 nM; at CYP11B2, 739 nM.
